Experimental data: PubChem BioAssay AID248 (DTP/NCI, 2004)
Several values for one entry are separate records, joined by “and”; a condition that tells them apart may be missing. Equal values may be shown once. Toxic doses and inconclusive results are not listed. No stated cut-off is given here; in the data, active means T/C of 150% or more; inactive means T/C below 125%.

Tested on: L1210 leukemia ip in BDF1 mice, survival T/C
Assay: NCI In Vivo Anticancer Drug Screen. Data for tumor model L1210 Leukemia (intraperitoneal) in B6D2F1 (BDF1) mice
Conditions: higher = longer survival
Procedure, shortened: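 Transplantable tumor model; survival measured in treated vs vehicle control mice. Value = treated/control.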

Measured: T/C

COc1cccc2c1C(=O)c1c(O)c3c(c(O)c1C2=O)C[C@@](O)(C(C)=O)C[C@@H]3OC1CC(N)C(O)C(C)O1 (stereo not given in full)
inactive: endpoint: mean survival time, dose: 0.05 mg/kg/injection, schedule: Q01DX009 (ip), vehicle: saline 105 % of control | endpoint: mean survival time, dose: 0.1 mg/kg/injection, schedule: Q01DX015 (ip), vehicle: water 104 % of control | endpoint: mean survival time, dose: 0.1 mg/kg/injection, schedule: Q02DX008 (ip), vehicle: water 97 % of control | endpoint: mean survival time, dose: 0.14 mg/kg/injection, schedule: Q04DX002 (ip), vehicle: saline 104 % of control and 105 % of control | endpoint: mean survival time, dose: 0.14 mg/kg/injection, schedule: Q## X004 (ip), vehicle: water 103 % of control | endpoint: mean survival time, dose: 0.15 mg/kg/injection, schedule: Q02DX008 (ip), vehicle: water 106 % of control | endpoint: mean survival time, dose: 0.25 mg/kg/injection, schedule: Q04DX003 (ip), vehicle: water 104 % of control | endpoint: mean survival time, dose: 0.27 mg/kg/injection, schedule: Q04DX002 (ip), vehicle: saline 94 % of control | endpoint: mean survival time, dose: 0.54 mg/kg/injection, schedule: Q04DX002 (ip), vehicle: saline 100 % of control | endpoint: mean survival time, dose: 1.0 mg/kg/injection, schedule: Q03HX024 (ip), vehicle: water 103 % of control | endpoint: mean survival time, dose: 1.0 mg/kg/injection, schedule: Q04DX005 (ip), vehicle: saline 105 % of control | endpoint: mean survival time, dose: 1.3 mg/kg/injection, schedule: Q02DX005 (ip), vehicle: saline 97 % of control | endpoint: mean survival time, dose: 1.8 mg/kg/injection, schedule: Q## X032 (ip), vehicle: water 95 % of control | endpoint: mean survival time, dose: 2.0 mg/kg/injection, schedule: Q02DX005 (ip), vehicle: saline 102 % of control | endpoint: mean survival time, dose: 2.0 mg/kg/injection, schedule: Q02DX009 (ip), vehicle: saline 102 % of control | endpoint: mean survival time, dose: 2.0 mg/kg/injection, schedule: Q03HX024 (ip), vehicle: water 100 % of control | endpoint: mean survival time, dose: 2.7 mg/kg/injection, schedule: Q## X032 (ip), vehicle: water 100 % of control | endpoint: mean survival time, dose: 3.33 mg/kg/injection, schedule: Q01DX Z (ip), vehicle: saline 105 % of control | endpoint: mean survival time, dose: 3.95 mg/kg/injection, schedule: Q01DX Z (oral), vehicle: saline 101 % of control | endpoint: mean survival time, dose: 4.0 mg/kg/injection, schedule: Q01DX003 (ip), vehicle: saline 103 % of control | endpoint: mean survival time, dose: 4.0 mg/kg/injection, schedule: Q01DX005 (ip), vehicle: saline 102 % of control | endpoint: mean survival time, dose: 4.0 mg/kg/injection, schedule: Q01DX010 (ip), vehicle: saline 92 % of control and 103 % of control | endpoint: mean survival time, dose: 4.0 mg/kg/injection, schedule: Q01DX014 (ip), vehicle: saline 100 % of control | endpoint: mean survival time, dose: 4.0 mg/kg/injection, schedule: Q04DX005 (ip), vehicle: saline 106 % of control | endpoint: mean survival time, dose: 4.0 mg/kg/injection, schedule: Q06HX004 (ip), vehicle: water 102 % of control | endpoint: mean survival time, dose: 4.0 mg/kg/injection, schedule: Q## X Z (ip), vehicle: water 104 % of control | endpoint: mean survival time, dose: 5.0 mg/kg/injection, schedule: Q01DX009 (oral), vehicle: saline 104 % of control | endpoint: mean survival time, dose: 5.0 mg/kg/injection, schedule: Q01DX Z (ip), vehicle: saline 95 % of control | endpoint: mean survival time, dose: 5.92 mg/kg/injection, schedule: Q01DX Z (oral), vehicle: saline 106 % of control | endpoint: mean survival time, dose: 6.0 mg/kg/injection, schedule: Q01DX014 (ip), vehicle: saline 105 % of control | endpoint: mean survival time, dose: 6.25 mg/kg/injection, schedule: Q01DX009 (ip), vehicle: saline 95 % of control | endpoint: mean survival time, dose: 8.0 mg/kg/injection, schedule: Q01DX001 (ip), vehicle: water 98 % of control | endpoint: mean survival time, dose: 8.0 mg/kg/injection, schedule: Q01DX015 (ip), vehicle: saline 103 % of control | endpoint: mean survival time, dose: 8.88 mg/kg/injection, schedule: Q01DX001 (ip), vehicle: saline 105 % of control | endpoint: mean survival time, dose: 8.88 mg/kg/injection, schedule: Q01DX Z (oral), vehicle: saline 100 % of control | endpoint: mean survival time, dose: 9.0 mg/kg/injection, schedule: Q## X032 (ip), vehicle: water 104 % of control | endpoint: mean survival time, dose: 10.0 mg/kg/injection, schedule: Q04DX003 (ip), vehicle: water 104 % of control | endpoint: mean survival time, dose: 12.0 mg/kg/injection, schedule: Q02DX008 (ip), vehicle: saline 102 % of control | endpoint: mean survival time, dose: 12.5 mg/kg/injection, schedule: Q01DX001 (oral), vehicle: water 103 % of control | endpoint: mean survival time, dose: 13.0 mg/kg/injection, schedule: Q## X004 (ip), vehicle: saline 96 % of control | endpoint: mean survival time, dose: 13.3 mg/kg/injection, schedule: Q01DX001 (ip), vehicle: saline 94 % of control and 95 % of control | endpoint: mean survival time, dose: 13.3 mg/kg/injection, schedule: Q01DX Z (oral), vehicle: saline 98 % of control | endpoint: mean survival time, dose: 13.33 mg/kg/injection, schedule: Q#B X Z (oral), vehicle: water 103 % of control | endpoint: mean survival time, dose: 20.0 mg/kg/injection, schedule: Q01DX001 (ip), vehicle: water 95 % of control | endpoint: mean survival time, dose: 20.0 mg/kg/injection, schedule: Q01DX Z (oral), vehicle: saline 106 % of control | endpoint: mean survival time, dose: 25.0 mg/kg/injection, schedule: Q01DX001 (oral), vehicle: water 94 % of control | endpoint: mean survival time, dose: 25.0 mg/kg/injection, schedule: Q04DX002 (ip), vehicle: saline 97 % of control | endpoint: mean survival time, dose: 30.0 mg/kg/injection, schedule: Q01DX001 (ip), vehicle: saline 95 % of control | endpoint: mean survival time, dose: 30.0 mg/kg/injection, schedule: Q01DX Z (oral), vehicle: saline 102 % of control | endpoint: mean survival time, dose: 45.0 mg/kg/injection, schedule: Q01DX Z (oral), vehicle: saline 102 % of control | endpoint: mean survival time, dose: 50.0 mg/kg/injection, schedule: Q01DX001 (oral), vehicle: water 97 % of control | endpoint: mean survival time, dose: 80.0 mg/kg/injection, schedule: Q01DX010 (oral), vehicle: saline 103 % of control | endpoint: mean survival time, dose: 80.0 mg/kg/injection, schedule: Q07DX Z (oral), vehicle: water 97 % of control | endpoint: mean survival time, dose: 100.0 mg/kg/injection, schedule: Q01DX001 (oral), vehicle: water 100 % of control | endpoint: mean survival time, dose: 160.0 mg/kg/injection, schedule: Q07DX Z (oral), vehicle: water 101 % of control | endpoint: median survival time, dose: 0.05 mg/kg/injection, schedule: Q01DX001 (ip), vehicle: saline 100 % of control | endpoint: median survival time, dose: 0.2 mg/kg/injection, schedule: Q01DX001 (ip), vehicle: saline 94 % of control and 100 % of control | endpoint: median survival time, dose: 0.28 mg/kg/injection, schedule: Q03HX008 (ip), vehicle: water 105 % of control | endpoint: median survival time, dose: 0.8 mg/kg/injection, schedule: Q01DX001 (ip), vehicle: saline 100 % of control | endpoint: median survival time, dose: 1.75 mg/kg/injection, schedule: Q04DX003 (ip), vehicle: water 94 % of control | endpoint: median survival time, dose: 1.8 mg/kg/injection, schedule: Q01DX005 (ip), vehicle: water 105 % of control | endpoint: median survival time, dose: 2.0 mg/kg/injection, schedule: Q01DX001 (iv), vehicle: water 99 % of control | endpoint: median survival time, dose: 2.0 mg/kg/injection, schedule: Q01DX005 (ip), vehicle: other 106 % of control | endpoint: median survival time, dose: 2.0 mg/kg/injection, schedule: Q03HX008 (ip), vehicle: water 94 % of control | endpoint: median survival time, dose: 2.6 mg/kg/injection, schedule: Q04DX003 (ip), vehicle: water 105 % of control | endpoint: median survival time, dose: 3.0 mg/kg/injection, schedule: Q01DX005 (ip), vehicle: water 100 % of control | endpoint: median survival time, dose: 3.0 mg/kg/injection, schedule: Q04DX003 (sc), vehicle: water 99 % of control and 100 % of control | endpoint: median survival time, dose: 3.9 mg/kg/injection, schedule: Q01DX001 (ip), vehicle: water 100 % of control | endpoint: median survival time, dose: 3.9 mg/kg/injection, schedule: Q04DX003 (ip), vehicle: water 100 % of control | endpoint: median survival time, dose: 4.0 mg/kg/injection, schedule: Q01DX001 (ip), vehicle: saline 106 % of control | endpoint: median survival time, dose: 4.0 mg/kg/injection, schedule: Q01DX001 (iv), vehicle: water 102 % of control | endpoint: median survival time, dose: 5.0 mg/kg/injection, schedule: Q01DX017 (ip), vehicle: water 105 % of control | endpoint: median survival time, dose: 5.0 mg/kg/injection, schedule: Q04DX003 (ip), vehicle: Klucel (hydroxypropylcellulose) (HPC) 105 % of control | endpoint: median survival time, dose: 5.9 mg/kg/injection, schedule: Q01DX001 (ip), vehicle: water 105 % of control | endpoint: median survival time, dose: 5.9 mg/kg/injection, schedule: Q04DX003 (ip), vehicle: water 100 % of control | endpoint: median survival time, dose: 8.0 mg/kg/injection, schedule: Q01DX001 (iv), vehicle: water 102 % of control | endpoint: median survival time, dose: 8.3 mg/kg/injection, schedule: Q04DX003 (ip), vehicle: Klucel (hydroxypropylcellulose) (HPC) 94 % of control and 97 % of control | endpoint: median survival time, dose: 8.9 mg/kg/injection, schedule: Q01DX001 (ip), vehicle: water 94 % of control | endpoint: median survival time, dose: 10.0 mg/kg/injection, schedule: Q01DX001 (ip), vehicle: water 97 % of control and 100 % of control | endpoint: median survival time, dose: 10.0 mg/kg/injection, schedule: Q04DX003 (ip), vehicle: water 100 % of control | endpoint: median survival time, dose: 13.3 mg/kg/injection, schedule: Q01DX001 (ip), vehicle: water 100 % of control | endpoint: median survival time, dose: 25.0 mg/kg/injection, schedule: Q04DX003 (sc), vehicle: water 100 % of control and 102 % of control | endpoint: median survival time, dose: 39.0 mg/kg/injection, schedule: Q04DX003 (sc), vehicle: water 99 % of control and 100 % of control

CC(=O)Nc1cc(Cl)c(Nc2cc(S(=O)(=O)O)c(N)c3c2C(=O)c2ccccc2C3=O)c(Cl)c1
inactive: endpoint: mean survival time, dose: 75.0 mg/kg/injection, schedule: Q01DX001 (ip), vehicle: saline 96 % of control | endpoint: mean survival time, dose: 150.0 mg/kg/injection, schedule: Q01DX001 (ip), vehicle: saline 88 % of control
